Key:
[1] = tested on: differentiated L6-myotubes; test: Glucose uptake screen (Biological example 1 of WO 2019/053427); type: cell-based; details: compound at 10 μM, activity relative to isoproterenol at 10 μM, read-out: Biological example 1 of WO 2019/053427 (GU)
Method in brief: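 Uptake was read out as ^3H-2-deoxyglucose (50 nM, 10 min) radioactivity in NaOH lysates. Beforehand, overnight-starved, differentiated L6 myotubes received compound at 1×10^−5 M with ICI-118551 present for 1 h 40 min, followed by fresh agonist for a further 20 min in glucose-free medium.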

[2] = tested on: differentiated L6-myotubes; test: cAMP production relative to isoprenaline (Biological example 2 of WO 2019/053427); type: cell-based; details: 0.25 h, compound at 10 μM, activity relative to isoproterenol at 10 μM
Method in brief: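 Values are cAMP levels relative to isoprenaline at equal concentration (final 1×10^−5 M for both). Stimulation lasted 15 min in differentiated L6 myotubes, using HBSS buffer (pH 7.4) containing 1 mM IBMX, 5 mM HEPES and 1% BSA.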

## CC(C)(C[C@H]1CC[C@H](NS(C)(=O)=O)CC1)NC[C@H](O)c1cncc(F)c1 [Compound 360, (R)-2-{1,1-dimethyl-2-[(1r,4R)-4-(mesylamino)cyclohexyl]ethylamino}-1-(5-fluoro-3-pyridyl)-1-ethanol]
[1]
  Emax at 10 µM: > 75%
[2]
  Emax at 10 µM: < 25%

## O[C@@H](CNCC[C@H]1CC[C@@H](OCc2ccccc2)CC1)c1cncc(F)c1 [Compound 291, (R)-1-(5-fluoro-3-pyridyl)-2-{2-[(1s,4S)-4-(benzyloxy)cyclohexyl]ethylamino}-1-ethanol]
[1]
  Emax at 10 µM: 50 to 75%
[2]
  Emax at 10 µM: < 25%

## CC1(C)CC[C@H]([C@H](O)c2cccc(Cl)c2)N1 [Compound 154, (R)-[(R)-5,5-dimethyl-2-pyrrolidinyl](m-chlorophenyl)methanol]
[1]
  Emax at 10 µM: > 75%
[2]
  Emax at 10 µM: < 25%

## CC12CC(C1)[C@H]([C@@H](O)c1cccc(N)c1F)N2 [Compound 243, (S)-{(R)-1-methyl-2-azabicyclo[2.1.1]hex-3-yl}(3-amino-2-fluorophenyl)methanol]
[1]
  Emax at 10 µM: 50 to 75%
[2]
  Emax at 10 µM: < 25%

## CC(=O)N[C@H]1CC[C@H](CC(C)(C)NC[C@@H](O)c2cccc(C#N)n2)CC1 [Compound 427, N-[(1R,4r)-4-{2-[(R)-2-(6-cyano-2-pyridyl)-2-hydroxyethylamino]-2-methylpropyl}cyclohexyl]acetamide]
[1]
  Emax at 10 µM: < 25%
[2]
  Emax at 10 µM: < 25%

## CC(C)(NC[C@H](O)c1cncc(F)c1)[C@H]1CC[C@@H](O)CC1 [Compound 286, (R)-1-(5-fluoro-3-pyridyl)-2-{1-methyl-1-[(1s,4S)-4-hydroxycyclohexyl]ethyl-amino}-1-ethanol]
[1]
  Emax at 10 µM: 25 to 50%
[2]
  Emax at 10 µM: < 25%

## O[C@H](c1cncc(F)c1)C12CCC(COCc3ccc(F)cc3)(CC1)N2 [Compound 443, (R)-(4-{[(p-fluorophenyl)methoxy]methyl}-7-azabicyclo[2.2.1]hept-1-yl)(5-fluoro-3-pyridyl)methanol]
[1]
  Emax at 10 µM: > 75%
[2]
  Emax at 10 µM: 25 to 50%

## Oc1ccc(C(O)CNCCCC2CC2)cc1 (stereo not drawn) [Compound 30, 2-(3-cyclopropylpropylamino)-1-(p-hydroxyphenyl)-1-ethanol]
[1]
  Emax at 10 µM: > 75%
[2]
  Emax at 10 µM: < 25%

## CC(C)(C[C@H]1CC[C@H](NS(C)(=O)=O)CC1)NC[C@@H](O)c1cccc(C#N)n1 [Compound 428, 6-[(R)-2-{1,1-dimethyl-2-[(1r,4R)-4-(mesylamino)cyclohexyl]ethylamino}-1-hydroxyethyl]-2-pyridinecarobnitrile]
[1]
  Emax at 10 µM: < 25%
[2]
  Emax at 10 µM: < 25%

## CC12CC(C1)[C@H]([C@H](O)c1ccccc1F)N2 [Compound 210, (R)-{(R)-1-methyl-2-azabicyclo[2.1.1]hex-3-yl}(o-fluorophenyl)methanol]
[1]
  Emax at 10 µM: > 75%
[2]
  Emax at 10 µM: > 75%

## CCC[C@@H](C)NC[C@H](O)c1cccc(F)c1 [Compound 50, (R)-2-[(R)-1-methylbutylamino]-1-(m-fluorophenyl)-1-ethanol]
[1]
  Emax at 10 µM: > 75%
[2]
  Emax at 10 µM: < 25%

## CC(=O)N[C@H]1CC[C@H](CC(C)(C)NC[C@H](O)c2cccnc2C)CC1 [Compound 434, N-[(1R,4r)-4-{2-[(R)-2-hydroxy-2-(2-methyl-3-pyridyl)ethylamino]-2-methylpropyl}cyclohexyl]acetamide]
[1]
  Emax at 10 µM: > 75%
[2]
  Emax at 10 µM: < 25%

## CCCCNC[C@H](O)c1cccc(O)c1F [Compound 87, (R)-2-(butylamino)-1-(2-fluoro-3-hydroxyphenyl)-1-ethanol]
[1]
  Emax at 10 µM: > 75%
[2]
  Emax at 10 µM: 25 to 50%

## O[C@@H](CNCCC[C@H]1CC[C@@H](O)CC1)c1cccc(F)c1 [Compound 306, (R)-1-(m-fluorophenyl)-2-{3-[(1s,4R)-4-hydroxycyclohexyl]propylamino}-1-ethanol]
[1]
  Emax at 10 µM: 25 to 50%
[2]
  Emax at 10 µM: < 25%

## CC12CC(C1)[C@H]([C@H](O)c1cccc(Cl)c1)N2 [Compound 206, (R)-{(R)-1-methyl-2-azabicyclo[2.1.1]hex-3-yl}(m-chlorophenyl)methanol]
[1]
  Emax at 10 µM: > 75%
[2]
  Emax at 10 µM: < 25%

## CC1(C)C[C@@H]([C@H](O)c2cccc(Cl)c2)N1 [Compound 232, (R)-[(S)-4,4-dimethyl-2-azetidinyl](m-chlorophenyl)methanol]
[1]
  Emax at 10 µM: 25 to 50%
[2]
  Emax at 10 µM: < 25%

## CC1(C)CCC[C@H]([C@@H](O)c2cccc(F)c2)N1 [Compound 101, (S)-[(R)-6,6-dimethyl-2-piperidyl](m-fluorophenyl)methanol]
[1]
  Emax at 10 µM: 25 to 50%
[2]
  Emax at 10 µM: < 25%

## CC12CC(C1)[C@@H]([C@H](O)c1cccc(N)c1F)N2 [Compound 244, (R)-{(S)-1-methyl-2-azabicyclo[2.1.1]hex-3-yl}(3-amino-2-fluorophenyl)methanol]
[1]
  Emax at 10 µM: 50 to 75%
[2]
  Emax at 10 µM: < 25%

## Oc1ccc(C(O)CNCC2CCCCC2)cc1 (stereo not drawn) [Compound 6, 2-[(cyclohexylmethyl)ami-no]-1-(p-hydroxyphenyl)-1-ethanol]
[1]
  Emax at 10 µM: > 75%
[2]
  Emax at 10 µM: < 25%

## CC(C)(C[C@H]1CC[C@@H](O)CC1)NC[C@H](O)c1cccc(F)c1 [Compound 302, (R)-2-{1,1-dimethyl-2-[(1s,4S)-4-hydroxycyclohexyl]ethylamino}-1-(m-fluorophenyl)-1-ethanol]
[1]
  Emax at 10 µM: 50 to 75%
[2]
  Emax at 10 µM: < 25%

## CCC[C@@H]1CCC[C@H]([C@@H](O)c2ccccc2F)N1 [Compound 107, (S)-[(2R,6R)-6-propyl-2-piperidyl](o-fluorophenyl)methanol]
[1]
  Emax at 10 µM: 25 to 50%
[2]
  Emax at 10 µM: < 25%

## CCCCNC[C@H](O)c1ccnc(N)n1 [Compound 73, (S)-1-(2-amino-4-pyrimidinyl)-2-(butylamino)-1-ethanol]
[1]
  Emax at 10 µM: 25 to 50%
[2]
  Emax at 10 µM: < 25%

## CC(C)(NC[C@H](O)c1cccc(F)c1)[C@H]1CC[C@H](OCc2ccccc2)CC1 [Compound 279, (R)-1-(m-fluorophenyl)-2-{1-methyl-1-[(1r,4R)-4-(benzyloxy)cyclohexyl]eth-ylamino}-1-ethanol]
[1]
  Emax at 10 µM: 50 to 75%
[2]
  Emax at 10 µM: < 25%

## O[C@H](c1cncc(F)c1)C12CCC(COCc3ccc(OC(F)(F)F)cc3)(CC1)N2 [Compound 490, (R)-(5-fluoro-3-pyridyl)(4-{[(p-trifluoromethoxyphenyl)methoxy]methyl}-7-azabicyclo[2.2.1]hept-1-yl)methanol]
[1]
  Emax at 10 µM: 50 to 75%
[2]
  Emax at 10 µM: < 25%

## CC(=O)N[C@H]1CC[C@H](C(C)(C)NC[C@H](O)c2cccc(F)c2)CC1 [Compound 386, N-[(1R,4r)-4-{1-[(R)-2-(m-fluorophenyl)-2-hydroxyethylamino]-1-methylethyl}cyclohexyl]acetamide]
[1]
  Emax at 10 µM: > 75%
[2]
  Emax at 10 µM: < 25%

## CCCCNCC(O)c1cc(F)c(N)c(F)c1 (stereo not drawn) [Compound 37, 1-(4-amino-3,5-difluorophenyl)-2-(butylamino)-1-ethanol]
[1]
  Emax at 10 µM: > 75%
[2]
  Emax at 10 µM: > 75%

## CC(C)(C[C@H]1CC[C@H](O)CC1)NC[C@H](O)c1cccc(F)c1 [Compound 300, (R)-2-{1,1-dimethyl-2-[(1r,4R)-4-hydroxycyclohexyl]ethylamino}-1-(m-fluorophenyl)-1-ethanol]
[1]
  Emax at 10 µM: > 75%
[2]
  Emax at 10 µM: < 25%

## O[C@@H](CNC[C@H]1CC[C@H](OCc2ccccc2)CC1)c1cncc(F)c1 [Compound 273, (R)-1-(5-fluoro-3-pyrdiyl)-2-({[(1r,4R)-4-(benzyloxy)cyclohexyl]methyl}amino)-1-ethanol]
[1]
  Emax at 10 µM: 25 to 50%
[2]
  Emax at 10 µM: < 25%

## O[C@@H](CNCCC[C@H]1CC[C@@H](OCc2ccccc2)CC1)c1cncc(F)c1 [Compound 275, (R)-1-(5-fluoro-3-pyridyl)-2-{3-[(1s,4R)-4-(benzyloxy)cyclohexyl]pro-pylamino}-1-ethanol]
[1]
  Emax at 10 µM: 50 to 75%
[2]
  Emax at 10 µM: < 25%

## CCC[C@H]1CCC[C@H]([C@@H](O)c2ccccc2F)N1 [Compound 106, (S)-[(2R,6S)-6-propyl-2-piperidyl](o-fluorophenyl)methanol]
[1]
  Emax at 10 µM: 25 to 50%
[2]
  Emax at 10 µM: < 25%

## O[C@@H](CNCCC[C@H]1CC[C@@H](O)CC1)c1cncc(F)c1 [Compound 304, (R)-1-(5-fluoro-3-pyridyl)-2-{3-[(1s,4R)-4-hydroxycyclohexyl]propylamino}-1-ethanol]
[1]
  Emax at 10 µM: 50 to 75%
[2]
  Emax at 10 µM: < 25%

## CC1(C)CC[C@H]([C@H](O)c2ccccc2F)N1 [Compound 175, (R)-[(R)-5,5-dimethyl-2-pyrrolidinyl](o-fluorophenyl)methanol]
[1]
  Emax at 10 µM: > 75%
[2]
  Emax at 10 µM: 25 to 50%

## Oc1ccc(C(O)CNCCC2CCCCC2)cc1 (stereo not drawn) [Compound 16, 2-(2-cyclohexylethylamino)-1-(p-hydroxyphenyl)-1-ethanol]
[1]
  Emax at 10 µM: 25 to 50%
[2]
  Emax at 10 µM: < 25%

## CO[C@H]1CC[C@H](C[C@@H]2CC[C@H]([C@H](O)c3ccccc3F)N2)CC1 [Compound 337, (R)-[(2R,5S)-5-{[(1r,4S)-4-methoxycyclohexyl]methyl}-2-pyrrolidinyl](o-fluorophenyl)methanol]
[1]
  Emax at 10 µM: > 75%
[2]
  Emax at 10 µM: < 25%

## CC(C)(C[C@H]1CC[C@H](S(N)(=O)=O)CC1)NC[C@H](O)c1cccc(F)c1 [Compound 516, (1R,4r)-4-{2-[(R)-2-(m-fluorophenyl)-2-hydroxyethylamino]-2-methylpropyl}cyclohexanesulfonamide]
[1]
  Emax at 10 µM: > 75%
[2]
  Emax at 10 µM: < 25%

## CC(C)(C)NC[C@H](O)c1ccc(Cl)cn1 [Compound 147, (S)-2-(tert-butylamino)-1-(5-chloro-2-pyridyl)-1-ethanol]
[1]
  Emax at 10 µM: 25 to 50%
[2]
  Emax at 10 µM: < 25%

From patent US20260256751A1, “COMBINATION OF BETA-2-ADRENERGIC RECEPTOR AGONISTS AND GLP-1 RECEPTOR AGONISTS FOR USE IN TREATING HYPERGLYCAEMIA” (ATROGI AB, priority 2023, published 2026)
